25 molecules from patent US20260102418A1, “An anti-influenza virus derivative and uses thereof” (Shijiazhuang Discovery Medicine Technology Co., Ltd., priority 2022, published 2026) can be followed below.

Entries after “also recorded” stand apart in the source; their conditions may differ. Read-outs that look alike come from different tables or passages of the source.

Data set [1] relates to influenza virus (A/HPB/359/95 (H3N2)). The data set is described as follows: organism not typed. The conditions noted are these: MDCK, read-out: Anti-IAV EC50.
The next data set is described as follows: in vitro. Particulars: dog.
The test system of another data set is MDCK cells. The data set can be described thus: Cytotoxicity test in MDCK cells (CPE method, 72 hours). Particulars: read-out: TC50 in MDCK; MDCK cells, 72 hours, CPE method.
Assay in data set [2]: as above
The conditions noted are these: dog.

Data set [3] relates to B/Beijing-Haidian/1386/2013 (BV). The data set can be described thus: Antiviral CPE assay in MDCK, other influenza strains. Particulars: Influenza B virus, CPE method. Type of data set: cell-based.
The next data set deals with A/WSN/33 (H1N1). Described as above. Type of data set: cell-based, influenza A virus (IAV). The conditions noted are these: Influenza A virus, CPE method.
Another data set deals with A/PR/8/34 (H1N1) (PR8). The data set is described as above. Type of data set: cell-based, influenza A virus (IAV). Particulars: Influenza A virus, CPE method.
Data set [4] relates to B/Massachusetts/2/2012 (BY-3). The data set is described as above. Particulars: Influenza B virus. It counts as cell-based.
Data set [5] has as its system influenza virus (A/HPB/359/95 (H3N2)).
For another data set, the system named is A/PR/8/34 (H1N1) virus. The data set can be described thus: Virus titer test and histopathological examination in influenza virus mouse model. Type of data set: in vivo, C57BL/6J mice. Particulars: for lung tissue pathology examination: left lung 5 days after infection. How it is done:
Fifteen C57BL/6J mice (female, 8 weeks, 18-20 g) were divided into 5 groups (group A, group B, group C, group D and group E), 3 in each group. After intranasal inoculation with a semi-lethal dose of A/PR/8/34 (H1N1) virus, group A/group B/group C were respectively given intragastric administration of test drugs (group A: DS1494; group B: DS1833; group C: M42, all suspended in 1% methylcellulose solution, and the dosage of each group was 2 mg/kg), group D was given oral gavage with the same volume of 1% methylcellulose solution, and group E was given intraperitoneal injection of test drug DS1835 (the dosage was 1.4 mg/kg, dissolved in physiological saline), and each group was given drug administration once a day. Lung tissue samples were collected 5 days after infection, the left lung was examined for pathology, and the right lung was homogenized for TCID50 determination.

Where [6] appears, read: HD = B/Beijing-Haidian/1386/2013 (BV).
Setting [7] is: PR8 = A/Puerto Rico/8/1934(H1N1), MDCK.
Where [8] appears, read: 2 mg/kg intragastric once a day.

As for `C[C@@]1(N2[C@@H]3COC4(CC4)CN3C(=O)c3c(OCOP(=O)(O)O)c(=O)ccn32)c2ccccc2[Se]Cc2c1ccc(F)c2F` [DS1499], the EC50 in data set [1] was found to be 0.29 ± 0.02 nM. This molecule also displayed a CC50 in the data set “in vitro” above 20000 nM.

With `[2H][C@@]1(N2[C@@H]3COC4(CC4)CN3C(=O)c3c(OCOC(=O)OC)c(=O)ccn32)c2ccccc2[Se]Cc2c1ccc(F)c2F` [DS1495], the concentration for a half-maximal effect (EC50) in [1] turned out to be 0.28 ± 0.03 nM. In “in vitro”, this molecule returned a CC50 above 20000 nM.

On to Baricitinib, for which, in the data set on MDCK cells, the CC50 was above 20000 nM.

On to `O=C1c2c(OCOP(=O)(OCc3ccccc3)OCc3ccccc3)c(=O)ccn2N([C@@H]2c3ccccc3[Se]Cc3c2ccc(F)c3F)[C@@H]2COC3(CC3)CN12` [DS1832], for which the EC50 in data set [1] came out at 0.21 ± 0.03 nM. In addition, the CC50 in the data set “in vitro” is above 20000 nM.

Consider `O=C1c2c(OP(=O)(O)O)c(=O)ccn2N([C@@H]2c3ccccc3[Se]Cc3c2ccc(F)c3F)[C@@H]2COC3(CC3)CN12` [DS14910], for which the EC50 in data set [1] is 0.21 ± 0.02 nM. In the data set “in vitro”, this molecule registered a CC50 above 20000 nM.

For `[2H][C@@]1(N2[C@@H]3COC4(CC4)CN3C(=O)c3c(OCOP(=O)(O)O)c(=O)ccn32)c2ccccc2[Se]Cc2c1ccc(F)c2F` [DS1498], in data set [2], the CC50 at 72 h is above 20000 nM. For the same molecule, the concentration for a half-maximal effect (EC50) in data set [1] amounted to 0.31 ± 0.02 nM.

Take `[2H][C@@]1(N2[C@@H]3COC4(CC4)CN3C(=O)c3c(O)c(=O)ccn32)c2ccccc2[Se]Cc2c1ccc(F)c2F` [DS1492]: the EC50 in [1] is 0.14 ± 0.03 nM. Moreover, the CC50 in the data set “in vitro” is above 20000 nM.

On to `O=C1c2c(OCOP(=O)(O)O)c(=O)ccn2N([C@@H]2c3ccccc3[Se]Cc3c2ccc(F)c3F)[C@@H]2COC3(CC3)CN12` [DS14915], for which the half-maximal effective concentration (EC50) in data set [3] (setting [6]) amounted to 0.00247 ± 0.00048 µM; in the data set with A/WSN/33 (H1N1), 0.00113 ± 0.00031 µM; in the data set on A/PR/8/34 (H1N1) (PR8) (setting [7]), 0.00097 ± 0.00036 µM; in data set [4] (MDCK), 0.00218 ± 0.00056 µM.

As for `CCOP(=O)(OCC)OCOc1c2n(ccc1=O)N([C@@H]1c3ccccc3[Se]Cc3c1ccc(F)c3F)[C@@H]1COC3(CC3)CN1C2=O` [DS1831], the EC50 in [1] came to 0.19 ± 0.02 nM. Further, in “in vitro”, the CC50 is above 20000 nM.

For `O=C1c2c(OCOP3(=O)OCCCO3)c(=O)ccn2N([C@@H]2c3ccccc3[Se]Cc3c2ccc(F)c3F)[C@@H]2COC3(CC3)CN12` [DS15812], the 50% effective concentration (EC50) in data set [1] was determined as 0.25 ± 0.03 nM. Besides, the CC50 in the data set “in vitro” was above 20000 nM.

In the case of `O=C1c2c(O)c(=O)ccn2N([C@@H]2c3ccccc3[Se]Cc3c2ccc(F)c3F)[C@@H]2COC3(CC3)CN12` [DS1491], the “therapeutic index (TC50/EC50)” value in data set [5] is recorded as “higher therapeutic index”. Further, the concentration for a half-maximal effect (EC50) in data set [1] turned out to be 0.2 ± 0.01 nM. The same molecule had a CC50 in “in vitro” above 20000 nM.

Take `C[C@@]1(N2[C@@H]3COC4(CC4)CN3C(=O)c3c(OP(=O)(O)O)c(=O)ccn32)c2ccccc2[Se]Cc2c1ccc(F)c2F` [DS14912]: in [1], the EC50 came to 0.17 ± 0.01 nM. Further, the CC50 in “in vitro” was above 20000 nM.

Consider `O=C1c2c(OCOP(=O)(O)O)c(=O)ccn2N([C@@H]2c3ccccc3[Se]Cc3c2ccc(F)c3F)[C@@H]2COC3(CC3)CN12` [DS1497], for which the EC50 in [1] is 0.37 ± 0.04 nM. Moreover, the CC50 in the data set “in vitro” was above 20000 nM.

Take `O=C1c2c(O)c(=O)ccn2N([C@@H]2c3ccccc3[Se]Cc3c2ccc(F)c3F)[C@@H]2COC3(CC3)CN12` [DS1835]: the “lung tissue pathology examination” value with A/PR/8/34 (H1N1) virus (1.4 mg/kg intraperitoneal injection once a day) was “clear bronchial structure, and the epithelial cells had complete morphology and neat arrangement”. The “lung tissue virus titer” value in the data set on A/PR/8/34 (H1N1) virus (1.4 mg/kg intraperitoneal injection once a day, right lung TCID50 5 days after infection) is on record as “lowest lung tissue virus titer”.

In the case of `[2H]C([2H])([2H])OC(=O)OCOc1c2n(ccc1=O)N([C@@H]1c3ccccc3SCc3c1ccc(F)c3F)[C@@H]1COC3(CC3)CN1C2=O` [DS1837], the concentration for a half-maximal effect (EC50) in data set [3] (setting [6]) was determined as 0.00565 ± 0.00073 µM; in the data set with A/WSN/33 (H1N1) it was 0.00136 ± 0.00022 µM; in the data set on A/PR/8/34 (H1N1) (PR8) (setting [7]) it was 0.00126 ± 0.00047 µM; in data set [4] (MDCK), 0.00588 ± 0.00091 µM; in [1], 0.65 ± 0.03 nM. Moreover, the CC50 at 72 h in the data set “in vitro” was above 20000 nM.

Take `COC(=O)OCOc1c2n(ccc1=O)N([C@@H]1c3ccccc3SCc3c1ccc(F)c3F)[C@@H]1COC3(CC3)CN1C2=O` [Compound M42, reference compound]: the EC50 worked out at 0.00621 ± 0.00109 µM in data set [3] (setting [6]); 0.00228 ± 0.00042 µM in the data set with A/WSN/33 (H1N1); 0.00193 ± 0.00055 µM in the data set on A/PR/8/34 (H1N1) (PR8) (setting [7]); 0.00724 ± 0.00136 µM in data set [4] (MDCK); 0.76 ± 0.04 nM in data set [1]. In addition, the “lung tissue pathology examination” value in the data set on A/PR/8/34 (H1N1) virus (setting [8]) was “clear bronchial structure, and the epithelial cells were arranged neatly with a small amount of inflammatory cell infiltration; also recorded: a small amount of epithelial cell necrosis was observed”. For the same molecule, the CC50 in “in vitro” was above 20000 nM.

As for `[2H][C@@]1(N2[C@@H]3COC4(CC4)CN3C(=O)c3c(OP(=O)(O)O)c(=O)ccn32)c2ccccc2[Se]Cc2c1ccc(F)c2F` [DS14911], the 50% effective concentration (EC50) in [1] was 0.19 ± 0.03 nM. The molecule also returned a CC50 in “in vitro” above 20000 nM.

Take `[2H]C([2H])([2H])OC(=O)OCOc1c2n(ccc1=O)N([C@]1([2H])c3ccccc3[Se]Cc3c1ccc(F)c3F)[C@@H]1COC3(CC3)CN1C2=O` [DS1834]: the half-maximal effective concentration (EC50) in data set [1] was determined as 0.1 ± 0.01 nM. The CC50 in “in vitro” was above 20000 nM.

As for `NC(=O)c1ncn([C@@H]2O[C@H](CO)[C@@H](O)[C@H]2O)n1` [Ribavirin, reference compound], the EC50 worked out at 34.5 ± 4.85 µM in data set [3] (HD, Ribavirin in μM); 27.2 ± 2.79 µM with A/WSN/33 (H1N1) (Ribavirin in μM); 29.6 ± 3.11 µM in the data set with A/PR/8/34 (H1N1) (PR8) (PR8, MDCK, Ribavirin in μM); 33.1 ± 3.29 µM in [4] (BY-3, MDCK, CPE method, Ribavirin in μM, read-out: EC50).

Turning to `COC(=O)OCOc1c2n(ccc1=O)N([C@]1(C)c3ccccc3[Se]Cc3c1ccc(F)c3F)[C@@H]1COC3(CC3)CN1C2=O` [DS1496], in data set [1], the concentration giving a half-maximal response (EC50) stood at 0.43 ± 0.02 nM. This molecule gave a CC50 in the data set “in vitro” above 20000 nM.

For the molecule `[2H]C([2H])([2H])OC(=O)OCOc1c2n(ccc1=O)N([C@]1([2H])c3ccccc3SCc3c1ccc(F)c3F)[C@@H]1COC3(CC3)CN1C2=O` [DS1838], the EC50 in data set [1] is 0.52 ± 0.04 nM. Also, in “in vitro”, the CC50 at 72 h is above 20000 nM.

`O=C1c2c(O)c(=O)ccn2N([C@@H]2c3ccccc3SCc3c2ccc(F)c3F)[C@@H]2COC3(CC3)CN12` [Compound M41, reference compound]: the CC50 at 72 h in data set [2] (MDCK cells) is above 20000 nM. The EC50 in data set [1] amounted to 0.63 ± 0.03 nM.

As to `[2H]C([2H])([2H])OC(=O)OCOc1c2n(ccc1=O)N([C@@H]1c3ccccc3[Se]Cc3c1ccc(F)c3F)[C@@H]1COC3(CC3)CN1C2=O` [DS1833], the EC50 in data set [3] (setting [6]) amounted to 0.00338 ± 0.00067 µM; in the data set with A/WSN/33 (H1N1), 0.00102 ± 0.00027 µM; with A/PR/8/34 (H1N1) (PR8) (setting [7]), 0.00089 ± 0.00022 µM; in data set [4] (MDCK), 0.00277 ± 0.00075 µM; in data set [1] it was 0.11 ± 0.02 nM. In the data set with A/PR/8/34 (H1N1) virus (setting [8]), the “lung tissue pathology examination” value is “clear bronchial structure, and the epithelial cells were arranged neatly with a small amount of inflammatory cell infiltration”. In the data set on A/PR/8/34 (H1N1) virus (2 mg/kg intragastric once a day, right lung TCID50 5 days after infection), the “lung tissue virus titers compared with M42 at the same dose” value is reported as “lower”. The same molecule returned a CC50 in “in vitro” above 20000 nM.

Regarding `C[C@@]1(N2[C@@H]3COC4(CC4)CN3C(=O)c3c(O)c(=O)ccn32)c2ccccc2[Se]Cc2c1ccc(F)c2F` [DS1493], in [5], the “therapeutic index (TC50/EC50)” value was “higher therapeutic index”. Besides, the concentration for a half-maximal effect (EC50) in data set [1] came to 0.1 ± 0.01 nM. The same molecule gave a CC50 in “in vitro” above 20000 nM.

In the case of `COC(=O)OCOc1c2n(ccc1=O)N([C@@H]1c3ccccc3[Se]Cc3c1ccc(F)c3F)[C@@H]1COCCN1C2=O` [Compound M43, reference compound], the 50% effective concentration (EC50) was determined as 0.00839 ± 0.00175 µM in data set [3] (setting [6]) and 0.0113 ± 0.00253 µM in data set [4] (MDCK).
